Reference: US20140315972A1, “RS)-2-(2-oxo-4-phenylpyrrolidin-1-yl)acetamide compound having modulatory activity with a commensurate effect, pharmaceutical substance (variants) and its application, composition (variants) thereof” (priority 2011, published 2014)
Marks after values point to notes of the source that are not given here.

How the values were obtained:
Type in all cases: in vivo
mice [1] = test: Benzedrine-induced stimulation of orientation-locomotor activity; settings: mice; Benzedrine 3.0 mg/kg alone
Excerpt: In regard to influencing the effects of Benzedrine, Phenotropil also can provide, depending on the dose, the diametrically opposite activity when in combination with psychostimulants. This fact must be taken into account in combined use of various pharmacological agents.

mice [2] = test: Duration of swimming in cold (2° C.) and normal (25° C.) water; settings: single dose 2.5 mg/kg i.p.
Method: Stimulatory effect on the duration of swimming in cold (2° C.) and normal (25° C.) water (Table 8.1-8.1.1) of Phenotropil (25 and 50 mg/kg) compared with the control (distilled water) and Benzedrine (2.5 mg/kg) was studied in white outbred male mice (18-26 g) compared to control (distilled water) when intraperitoneally administered, 60 min after the administration and with a course administration for 4 weeks administration on day 28 (Table 8.1.2). […] At normal temperature of water, the effect of Benzedrine was not modified and stayed at 34%.
The advantage of psychomodulator Phenotropil is obvious both with the single dose and the course use, by the effect on physical performance and stability of the body, both in normal and more adverse temperature conditions.

mice [3] = test: Cross maze exploratory behavior, HEF and LEF mice; settings: i.p. once a day 5 days, Compounds 1 and 4 100 mg/kg, Piracetam 200 mg/kg
mice [4] = test: Electric extremities pain stimulation, thresholds TA, TFC, TF
mice [5] = test: Hypobaric hypoxia in pressure chamber, adult mice; settings: for Duration of life: adult mice, hypobaric hypoxia
rats = test: 14-day immobilization in antiorthostatic position (Ds), thymus, spleen, adrenal mass ratios Kt; settings: Ds-conditions; for S/A: spleen/adrenals ratio (mg/100 g baseline body weight); for S/T: spleen/thymus ratio (mg/100 g baseline body weight); for T/A: thymus/adrenals ratio (mg/100 g baseline body weight)
rabbits = test: Transcallosal stimulation induced potential (TSIP); settings: Piracetam 300-500, Pyritinol 50-150, Phenotropil 25-300 mg/kg

CC(N)Cc1ccccc1 (stereo not drawn) [Benzedrine, reference compound]
Number of pulses for 3 min. (mice [1]): 84.3 ± 7.9 | Number of stand-ups for 3 min. (mice [1]): 14.2 ± 1.8 | Duration of swimming (mice [2]): 160.70 ± 11.75 min | Duration of swimming (mice [2]; water 2° C.): 1.60 ± 0.2 min

NC(=O)CN1CCCC1=O [Piracetam]
Kt (trigger transmission coefficient) (mice [3]; HEF mice): 3.1 ± 0.45 | Number of compartment explorations (mice [3]; HEF mice): 4.2 ± 0.7 // | Number of surveillances (mice [3]; HEF mice): 1.9 ± 0.2 | Kt (trigger transmission coefficient) (mice [3]; LEF mice): 2.4 ± 0.5 | Number of compartment explorations (mice [3]; LEF mice): 5.3 ± 0.8 // | Number of surveillances (mice [3]; LEF mice): 2.2 ± 0.2 | Kt (trigger transmission coefficient) (mice [3]; population as a whole): 1.3 ± 0.45 | Number of compartment explorations (mice [3]; population as a whole): 4.6 ± 0.7 // | Number of surveillances (mice [3]; population as a whole): 2.0 ± 0.2 | decrease in the aggression threshold (TF) (mice [4]; 100 mg/kg): 11.3% | lowering of threshold of emotional reactivity (TFC) (mice [4]; 100 mg/kg): 23.5% | reduction of the pain threshold (TA) (mice [4]; 100 mg/kg): 43.6% | TA (threshold of attention) vs control (mice [4]; 100 mg/kg i.p.): −43.6 * % | TF (threshold of aggression) vs control (mice [4]; 100 mg/kg i.p.): −11.3 * % | TFC (threshold of first cheep) vs control (mice [4]; 100 mg/kg i.p.): −23.5 * % | lowering of threshold of emotional reactivity (TFC) (mice [4]; 200 mg/kg): 47.0% | reduction of the pain threshold (TA) (mice [4]; 200 mg/kg): 48.1% | TA (threshold of attention) vs control (mice [4]; 200 mg/kg i.p.): −48.1 * % | TFC (threshold of first cheep) vs control (mice [4]; 200 mg/kg i.p.): −47.0 * % | TF (threshold of aggression) vs control (mice [4]; 200 mg/kg i.p., 200 mg/kg): −15.7 * % | TF (threshold of aggression) vs control (mice [4]; 200 mg/kg i.p., listed as Pyracetam, 200 mg/kg): 25.7% | reduction of the pain threshold (TA) (mice [4]; 300 mg/k (so in the source)): 19.9% | increase of aggression threshold (TF) (mice [4]; 300 mg/kg (so in the source)): 7.4% | TA (threshold of attention) vs control (mice [4]; 400 mg/kg i.p.): −20.0 * % | TF (threshold of aggression) vs control (mice [4]; 400 mg/kg i.p.): −7.4% | TFC (threshold of first cheep) vs control (mice [4]; 400 mg/kg i.p.): +5.0% | shortening of survival time vs control (mice [5]; 600 mg/kg): 35.0% | increase of survival time vs control (mice [5]; 900-2000 mg/kg): 78.0% | Duration of life (mice [5]; 600 mg/kg): 1.5 ± 0.6 min | Duration of life (mice [5]; 900 mg/kg): 4.0 ± 0.6 min | Duration of life (mice [5]; 2000 mg/kg): 4.2 ± 0.4 min | S/A (rats; 200 mg/kg): 12.1 ± 1.5 | S/T (rats; 200 mg/kg): 7.4 ± 0.7 | T/A (rats; 200 mg/kg): 1.6 ± 0.2 | S/A (rats; 400 mg/kg): 10.8 ± 1.3 | S/T (rats; 400 mg/kg): 7.2 ± 0.4 | T/A (rats; 400 mg/kg): 1.5 ± 0.1 | S/A (rats; 600 mg/kg): 10.2 ± 0.1 | S/T (rats; 600 mg/kg): 4.0 ± 0.1 | T/A (rats; 600 mg/kg): 2.6 ± 0.1 | TSIP P1 + N1 amplitude (rabbits): ++ (amplitude increase by 30 to 50%) | TSIP component N1 amplitude (rabbits): ++ (amplitude increase by 30 to 50%) | TSIP component P1 amplitude (rabbits): +++ (amplitude increase by more than 50%) | TSIP component P2 amplitude (rabbits): + (amplitude increase by less than 50%)
